A short description of this series: Partition of sevoflurane and HFIP in solvent/HF system. In kind it is physicochemical. The following applies: equal volumes, 25 C, fraction of original compound found in the solvent, by gas chromatography; for Partition Coefficients of Sevoflurane and HFIP in solvent/HF system: 1,2,3-trichloropropane: solvent 1,2,3-trichloropropane / HF; for Partition Coefficients of Sevoflurane and HFIP in solvent/HF system: HC-0.8 oil: solvent HC-0.8 oil (mixture of tetrachlorobutanes) / HF; for Partition Coefficients of Sevoflurane and HFIP in solvent/HF system: Krytox: solvent Krytox (1:1 mixture of DuPont Krytox GLP 100 and K6) / HF. The procedure:
The partitions of sevoflurane and of HFIP in solvent/HF system were measured by mixing a small amount of either sevoflurane or HFIP with a two-layer mixture of equal volumes of a particular solvent and HF at 25 C. After enough mixing to reach equilibrium, the fraction of original compound found in the solvent was determined by gas chromatography and quantified using standards.

The record followed here is patent US7230143B2, “Chromatographic method for the analysis of both in process and finished sevoflurane” (Halocarbon Products Corporation, priority 2004, dated 2007).

Molecules are shown by their SMILES.

As to `FCOC(C(F)(F)F)C(F)(F)F` [Sevoflurane, fluoromethyl 2,2,2-trifluoro-1-(trifluoromethyl)ethyl ether], the “Partition Coefficients of Sevoflurane and HFIP in solvent/HF system: 1,2,3-trichloropropane” value came to 0.45; the “Partition Coefficients of Sevoflurane and HFIP in solvent/HF system: HC-0.8 oil” value is reported as 1.00; the “Partition Coefficients of Sevoflurane and HFIP in solvent/HF system: Krytox” value is listed as 0.32; the “Partition Coefficients of Sevoflurane and HFIP in solvent/HF system: Isooctane” value was found to be 0.30. Also, the “Partition Coefficients of Sevoflurane and HFIP in solvent/HF system: Perfluoromethyldecalin” value is reported as 0.22.

Take `OC(C(F)(F)F)C(F)(F)F` [HFIP, 1,1,1,3,3,3-hexafluoro-2-propanol]: the “Partition Coefficients of Sevoflurane and HFIP in solvent/HF system: 1,2,3-trichloropropane” value is listed as less than 0.005; the “Partition Coefficients of Sevoflurane and HFIP in solvent/HF system: HC-0.8 oil” value was found to be 0.01; the “Partition Coefficients of Sevoflurane and HFIP in solvent/HF system: Krytox” value was less than 0.005; the “Partition Coefficients of Sevoflurane and HFIP in solvent/HF system: Isooctane” value was less than 0.005. Also, the “Partition Coefficients of Sevoflurane and HFIP in solvent/HF system: Perfluoromethyldecalin” value is on record as less than 0.005.
